# Assay results from patent publication US4226885A, “Guanylhydrazones and medicaments containing them” (Choay S.A., priority 1977, dated 1980).
# Read-outs that look alike come from different tables or passages of the source.
# Experiments:
# Lipidium sativum = experiment: Inhibition of the growth of the root meristem of Lipidium sativum (vegetable cells); type: in vivo; settings: for inhibiting activity (root growth, in words): Lipidium sativum test
# Protocol: The test of the inhibition of the growth of the root meristem of Lipidium sativum was used, which test is used to evaluate the cytostatic action of series of drugs. It consists in placing germinated grains of Lipidium sativum in 15 ml. of aqueous solution containing 1% of methyl cellulose, in which the guanyl hydrazones are placed in suspension.
# After leaving in darkness for 24 hours at the temperature of 27° C., the elongation of the root in comparison with that of a control batch (Li Lipidium sativum grain in methyl cellulose medium) is determined.
# The validity of the linear model was evaluated with the aid of test F: [formula]
# In the example supplied, for the calculation of the confidence interval for α=0.05, one finds:
# that is to say one has five chances per hundred, if one repeats another series of measurements, of finding a pI 50 outside this limit.
# [1] = mouse; cited from earlier work
# [2] = system: fibro-sarcomas induced by methyl cholanthrene, tumour cells in culture; experiment: Tumour culture: inhibition of multiplication of methyl cholanthrene-induced fibro-sarcoma cells in vitro; type: cell-based; settings: Rattus norvegicus, read-out: percentage of inhibition in comparison with the control; heading: percentage of inhibition in comparison with the control; B3 tumour culture, 10^-3 M
# platelet aggregation = experiment: Platelet anti-aggregant action (BORN's method); type: cell-based, human or rabbit
# Protocol: The determination of the platelet aggregability was effected according to BORN's method, using a LABINTEC aggregometer.
# Firstly a platelet-rich plasma (or PRP) and next a platelet-poor plasma (or PPP or PDP) are prepared from human blood or rabbit's blood, and the apparatus is calibrated.
# Then the aggregating power of the plasma (PRP) is determined in relation to the PDP in the presence and in the absence of guanyl hydrazone. Thus it is possible to determine the percentage of inhibition of platelet aggregation as a function of the concentration. The curves obtained permit of determining a pI 50. […]
# [3] = biological target: rat liver monoaminoxydase; experiment: I.M.A.O. activity: inhibition of rat liver monoaminoxydase (spectrophotometric, kynuramine as substratum); type: biochemical; settings: 50% inhibition
# Protocol: The inhibiting activity of the envisaged guanyl hydrazones in relation to rat liver monoaminoxydase was determined by means of a spectrophotometric method, using kynuramine as substratum.
# The I.M.A.O. activity was determined for various concentrations of guanyl hydrazone. The concentrations for which one obtains 50% inhibition relate to the pI 50, which is calculated as follows: […]
# For each concentration about ten experiments are carried out, from which the mean activity Yi is determined. Only concentrations giving a Yi between 15 and 85% of activity are retained.
# Assume N concentrations Ci retained; to each Ci there correspond a certain number ni of experiments and a mean activity Yi.
# Assume in all NT=Σni experiments.
# (a) The equation of the straight line Yi =f (Ci) is calculated by the method of least squares.
# To this straight line there are attached different statistic tests to express its validity, as straight line only.
# Then the corresponding concentration is deduced for Y=50%.
# (b) Statistical calculations permit evaluation of the legitimacy of the linear model. These calculations take account of all the points, that is to say NT experiments, whereas the straight line is determined from the mean activities only, which means that these calculations take account of the dispersion which affects every average.
# (c) Calculation of the confidence interval for α=0.05.
# The pI50 s of the compounds 1 to 7 appearing in Table I above were calculated by application of the method as just described; they have been listed in Table II below: […]
# [4] = system: fibro-sarcomas induced by methyl cholanthrene, tumour cells in culture; experiment: Tumour culture: inhibition of multiplication of methyl cholanthrene-induced fibro-sarcoma cells in vitro; type: cell-based; settings: Rattus norvegicus; for inhibition at 10 µM: 10^-5 molar; for inhibition at 1 µM: 10^-6 molar
# Protocol: (§1) A supplementary study of the activity of these products upon the inhibition of growth of animal cells was effected by tumour culture. On fibro-sarcomas induced by methyl cholanthrene (O. Flandre et coll. C.R. Jour. biol. 1966. 160 152) the products were tested: upon tumour cells in culture "in vitro" and upon treated rats.
# 1. upon tumour cells in culture "in vitro" the results of the tested products are reported in Table IV below, which expresses the cellular count at the 72nd hour after sub-culture, in the presence of the substances to be studied.
# The results are expressed in percentage of diminution of the number of cells in comparison with the control.
# The determinations were effected with the products at three molar concentrations: 10^-4, 10^-5 and 10^-6.
# This concerns fibro-sarcomas induced by methyl cholanthrene according to a technique described by O. FLANDRE, I. CIURANA, J. SECCHI and M. DAMON: Reports of the Sittings of the Biology Society, Volume 160, No. 1, 1966, page 152.
# The products can be tested either upon tumour cells cultivated in vitro, or upon the rat treated by tumour cell injections either in situ or by intraperitoneal injection.
# The preliminary experiments carried out with the substances according to the invention, tested on tumour cells cultivated in vitro, disclose a retardation of the cellular multiplication.
# Rat fibroblast cultures = experiment: Action upon cultures of trypsinised fibroblasts; type: cell-based; settings: read-out: percentage of inhibition in comparison with the control, heading: percentage of inhibition in comparison with the control, 10^-4 M, 48 and 72 hours
# Protocol: Rat fibroblast cultures are concerned and the strains have been maintained for several years.
# For single-layer cultivation in Roux flasks, Trypsinisation at 0.25% detaches the cells from the flask on the one hand and from one another on the other hand.
# The cells are distributed in lamellated tubes at the rate of 250,000 cells per ml., where they are deposited.
# The products to be tested are introduced at different dilutions, and left to act for 48 and 72 hours.
# Next, the counting of the cells is effected (10 fields for 5 blades) and the results obtained are compared with control tumours which have not received the product to be tested.
# [5] = system: rat embryo cultures (muscle fragment); experiment: Culture in explants: mitotic index of rat embryo cultures; type: cell-based; settings: for mitotic index: 4th day, control culture 2.5%; for number of mitoses at the metaphase level: vs control culture
# Protocol: This concerns rat embryo cultures kept for at least 6 months (muscle fragment). The explants are placed in culture in plasma coagulum (cock plasma). The cultures are fed with nutrient medium (Hanx+embryonary extract+decomplemented calf foetus serum). 24 hours after placing in plasma coagulum, the product to be tested is added at different dilutions. The cultures are examined on the 4th day and the counting of the number of mitoses is effected in the growth zone of the explants. The percentage of each of the phases of the mitosis is determined for the whole (mitotic index).
# [6] = system: fibro-sarcoma induced by methyl cholanthrene; experiment: Development of a fibro-sarcoma induced by methyl cholanthrene in vivo in the rat; settings: daily 50 mg./kg in two doses, over three months, vs untreated rats
# Protocol: as §1
# 2. Inhibiting action upon the development of a fibro-sarcoma induced by methyl cholanthrene "in vivo" in the rat.
# [7] = system: synthesis of nucleic acids; settings: cited from earlier work
# ADN = settings: cited from earlier work
# [8] = system: leukaemias, Hodgkin's disease; settings: cited from earlier work
# [9] = phenoxyacetic acid corresponding to the numbered guanyl hydrazone, root growth, read-out: Corresponding phenoxyacetic acid pI 50 (converted)
# [10] = platelet-rich plasma, human blood or rabbit's blood, Table V, read-out: PI50 (platelet aggregation) (converted)
# [11] = 50% inhibition of root growth, 24 hours, 27° C., darkness, read-out: pI 50 (guanyl hydrazones) (converted)
# [12] = 72 h, 10^-4 molar, 72nd hour after sub-culture, read-out: percentage of diminution of the number of cells in comparison with the control
# [13] = 72 h, 72nd hour after sub-culture, read-out: percentage of diminution of the number of cells in comparison with the control
# [14] = concentration of 10^-4 mol, read-out: retardation of the cellular multiplication
SMILES,IC50 (platelet aggregation; [10]) [µM],pI 50 [3],IC50 (Lipidium sativum; [11]) [µM],"inhibition at 100 µM [4, 12] [%]","inhibition at 10 µM [4, 13] [%]","inhibition at 1 µM [4, 13] [%]","inhibiting activity (root growth, in words) (Lipidium sativum)",other results
"O=C(O)COc1ccccc1 [1 (corresponding phenoxyacetic acid), reference compound]",–,–,–,–,–,–,–,IC50 (Lipidium sativum; [9]): 631 µM
"O=C(O)COc1ccccc1Cl [2 (corresponding phenoxyacetic acid), reference compound]",–,–,–,–,–,–,–,IC50 (Lipidium sativum; [9]): 112 µM
N=C(N)NN=Cc1ccc([N+](=O)[O-])o1 [5-nitrofurfuraldehyde guanyl hydrazone],–,–,–,–,–,–,–,anti-tumoral activity [1]: a certain anti-tumoral activity in the mouse
"Cc1ccccc1OCC(=O)O [8 (corresponding phenoxyacetic acid), reference compound]",–,–,–,–,–,–,–,IC50 (Lipidium sativum; [9]): 11 µM
N=C(N)NN=CCOc1ccccc1 [Compound 1],1200,4.90,692,15.8,7.89,5.26,–,inhibition at 1000 µM [2]: ~25%
N=C(N)NN=CCOc1cccc(Cl)c1 [Compound 3],490,4.70,33.9,31.6,26.3,0,great inhibiting activity,"inhibition at 100 µM [4, 14]: > 30%"
COc1cccc(OCC=NNC(=N)N)c1 [Compound 6],–,5.16,191,18.4,12.6,0,–,–
CC(C)c1ccccc1OCC=NNC(=N)N [Compound 11],–,–,39.8,78.6,42.1,18.4,great inhibiting activity,"inhibition at 100 µM (Rat fibroblast cultures): ~100%; mitotic index [5]: 1.9%; number of mitoses at the metaphase level [5]: significant reduction of the number of mitoses at the metaphase level; development of the tumours (weight estimations) [6]: clearly retarded; inhibition at 100 µM [4, 14]: > 30%"
N=C(N)NN=CCOc1ccc(Br)cc1 [Compound 12],562,–,2.88,57.1,40.4,0,great inhibiting activity,"development of the tumours (weight estimations) [6]: clearly retarded; inhibition at 100 µM [4, 14]: > 30%"
"CC(=O)Oc1ccccc1C(=O)O [Lysine acetylsalicylate, reference compound]",–,–,–,–,–,–,–,"IC50 (platelet aggregation; Platelet, read-out: PI50 (platelet aggregation)): 51300 µM"
CC(C=NNC(=N)N)=NNC(=N)N [methyl-glyoxal-bis (guanyl hydrazone)],–,–,–,–,–,–,–,"inhibition of nucleic acid synthesis [7]: inhibits the synthesis of nucleic acids; complex formation with ADN (ADN): forms complexes with ADN; action in Hodgkin's disease ([8]; Hodgkin's disease): sometimes but rarely efficacious; action in acute myeloblastic and promyelocytary leukaemias ([8]; acute myeloblastic and promyelocytary leukaemias): action has been verified; action in acute transformations of chronic myeloid leukaemia and other leukaemias ([8]; acute transformations of chronic myeloid leukaemia and other leukaemias): less efficacious; side effects on administration ([8]; in vivo): various cutaneous, digestive and metabolic troubles, in particular hypoglycaemia"

# Now from value to molecule, other results behind:
IC50 (platelet aggregation; [10]) [µM],pI 50 [3],SMILES,IC50 (Lipidium sativum; [11]) [µM],"inhibition at 100 µM [4, 12] [%]","inhibition at 10 µM [4, 13] [%]","inhibition at 1 µM [4, 13] [%]","inhibiting activity (root growth, in words) (Lipidium sativum)",other results
603,4.94,"N=C(N)NN=CCOc1ccccc1Cl [Compound 2, o-chlorophenoxy acetaldehyde guanyl hydrazone]",162,15.8,13.2,7.89,–,–
562,4.70,N=C(N)NN=CCOc1ccc(Cl)cc1 [Compound 4],7.24,36.8,23.7,7.89,great inhibiting activity,"inhibition at 1000 µM [2]: ~45%; inhibition at 100 µM (Rat fibroblast cultures): ~77%; mitotic index [5]: 1.2%; number of mitoses at the metaphase level [5]: significant reduction of the number of mitoses at the metaphase level; pI 50 (guanyl hydrazones) (Lipidium sativum; 50% inhibition of root growth, 24 hours, 27° C., darkness): 5.14±0.08; inhibition at 100 µM [4, 14]: > 30%"
1100,4.94,"COc1ccccc1OCC=NNC(=N)N [Compound 5, o-methoxy phenoxy acetaldehyde guanyl hydrazone]",224,5.26,2.63,0,–,–
1380,4.50,COc1ccc(OCC=NNC(=N)N)cc1 [Compound 7],102,15.8,15.3,0,–,–
525,–,Cc1ccccc1OCC=NNC(=N)N [Compound 8],38.9,10.7,7.89,0,great inhibiting activity,–
692,–,Cc1cccc(OCC=NNC(=N)N)c1 [Compound 9],26.3,32.1,13.2,10.5,great inhibiting activity,"inhibition at 100 µM [4, 14]: > 30%"
813,–,"Cc1ccc(OCC=NNC(=N)N)cc1 [Compound 10, p-methyl phenoxy acetaldehyde guanyl hydrazone]",58.9,25,23.7,0,–,–
977,–,N=C(N)NN=CCOc1ccc(F)cc1 [Compound 13],–,–,–,–,–,–
